Tests used:
[1] = system: LS180; test: 3-day growth inhibition assay; format: cell-based; settings: Homo sapiens; LS180 (Colon), KRAS p.G12D, PIK3CA p.H1047R, PTEN p.I67K; read-out: Growth inhibition (IC50: nmol/L)
Method: (§1) The IC50 values for each compound in cell lines used in a series of animal experiments evaluating the antitumor effects of Compound (1) on KRAS mutant tumor xenografts were determined by a 3-day growth inhibition assay (Table 7).

[2] = system: LU65; test: 3-day growth inhibition assay; format: cell-based; settings: Homo sapiens, Lu-65; LU65 (NSCLC), KRAS p.G12C; read-out: Growth inhibition (IC50: nmol/L)
Method: as §1

[3] = system: SW1573; test: 3-day growth inhibition assay; format: cell-based; settings: Homo sapiens; SW1573 (NSCLC), KRAS p.G12C, PIK3CA p.K111E; read-out: Growth inhibition (IC50: nmol/L)
Method: as §1

[4] = system: SW1573 human lung tumor xenografts; settings: 30 mg/kg/day
[5] = system: LU65 human lung tumor xenografts; test: antitumor effect in mice with LU65 xenograft tumors; settings: 30 mg/kg/day
Method: The tumor volumes and body weights of animals were recorded.

[6] = system: BT483; test: growth inhibition assay, NF1 mutant cell line; format: cell-based; settings: Homo sapiens, BT-483; BT483, ER+ breast, NF1 p.R1204W
Description: (§2) In order to investigate the growth inhibitory effect of Compound (1) in NF1 mutant cancer cell lines, the IC50 values of growth inhibition assay were obtained and compared then in Table 2.
(§3) In this experiment, to compare the growth inhibitory effect of Compound (1) with those of MAPK and PI3K signaling inhibitors, the IC50 values of trametinib (as a MEK inhibitor), and Alpelisib (as a PI3K inhibitor) were obtained and compared.

[7] = system: H1838; test: growth inhibition assay, NF1 mutant cell line; format: cell-based; settings: Homo sapiens, NCI-H1838; H1838, lung, NF1 p.N184Qfs*17
Description: as §2, §3

[8] = system: HCC202; test: growth inhibition assay, NF1 mutant cell line; format: cell-based; settings: HCC202, HER2+ breast, NF1 p.X465_splice
Description: as §2, §3

[9] = system: HCT116; test: growth inhibition assay, NF1 mutant cell line; format: cell-based; settings: Homo sapiens, HCT-116; HCT116, colon, NF1 p.P678Rfs*10, p.P388T
Description: as §2, §3

[10] = system: MDA-MB-175VII; test: growth inhibition assay, NF1 mutant cell line; format: cell-based; settings: Homo sapiens, ER+ breast, NF1 p.1679Dfs*21
Description: as §2, §3

[11] = system: MDA-MB-231; test: growth inhibition assay, NF1 mutant cell line; format: cell-based; settings: Homo sapiens; MDA-MB-231, TN breast, NF1 p.T467Hfs*3
Description: as §2, §3

[12] = system: MeWo; test: growth inhibition assay, NF1 mutant cell line; format: cell-based; settings: Homo sapiens, melanoma, NF1 p.Q1336*
Description: as §2, §3

[13] = system: RKO; test: growth inhibition assay, NF1 mutant cell line; format: cell-based; settings: Homo sapiens, colon
Description: as §2, §3

[14] = system: NF1 mutant cell lines; test: growth inhibition assay, summary over the panel; format: cell-based; settings: range over the cell lines of Table 2; read-out: IC50 values, range over NF1 mutant cell lines
Description: as §2, §3

[15] = system: MCF7 cells (control and NF1 knockdown); test: immunoblotting of target inhibition and apoptosis induction; format: cell-based, human
Method: To investigate the mechanism of action of Compound (1) in inhibiting the growth of NF1 knockdown breast cancer cells, Compound (1), trametinib, Alpelisib, and fulvestrant were exposed to NF1-knockdown MCF7 and T47D cells at indicated final concentration for 24 hours. NF1, pPRAS40 Thr246, pYB1 Ser102, pS6RP Ser235/236, ERα, and cleaved PARP were detected by immunoblotting.

[16] = system: AsPC-1; test: 3-day growth inhibition assay; format: cell-based; settings: Homo sapiens, ASPC1; AsPC-1 (Pancreas), KRAS p.G12D; read-out: Growth inhibition (IC50: nmol/L)
Method: as §1

[17] = system: LS180 human colorectal tumor xenografts; test: antitumor effect in mice with LS180 xenograft tumors; format: in vivo; settings: 1 mg/kg/day
Method: The oncogenic KRAS mutations are diverse, including not only G12C but also G12X and G13X in the mutation hotspot Glycine at […]. To determine whether Compound (1), which targets downstream of MAPK and PI3K signaling, is effective against G12D mutated cancers, an efficacy experiment of Compound (1) was conducted using subcutaneously transplanted LS180 tumor derived from colorectal cancers with KRAS G12D and PIK3CA and PTEN gene alterations.
Evaluation was conducted by comparing the efficacy of 80 mg/kg/day of Compound (1) with that of 1 mg/kg/day MEK inhibitor trametinib used as a reference group.

[18] = system: AsPC-1 human pancreatic tumor xenografts; settings: 1 mg/kg/day
Method: All treatments were administered every day by oral gavage. The tumor volumes and body weights of animals were recorded.

[19] = system: ER+/HER2− breast cancer cell lines; test: immunoblotting, combination with fulvestrant, presence and absence of estrogen and NF1; format: cell-based
Method: The actual standard of care for ER+/HER2− breast cancer uses the adjuvant therapies such as tamoxifen, letrozole, or fulvestrant. Patients with recurrent or refractory tumors are treated with additional use of CDK4/6 inhibitors or Alpelisib for PIK3CA-mutated cancers.

SMILES	IC50 [1] [nmol/L]	IC50 [2] [nmol/L]	IC50 [3] [nmol/L]	IC50 [6] [nM]	IC50 [7] [nM]	IC50 [8] [nM]	IC50 [9] [nM]	IC50 [10] [nM]	IC50 [11] [nM]	IC50 [12] [nM]	IC50 [13] [nM]	IC50 [14] [nM]	further results
C=CC(=O)N1CCN(c2nc(=O)n(-c3c(C)ccnc3C(C)C)c3nc(-c4c(O)cccc4F)c(F)cc23)[C@@H](C)C1 [AMG510, sotorasib, reference compound]	> 10000	7.17	> 10000										T/C ratio (%) ([4]; Day 15): 54%; Number of deaths ([4]; qd Day 1-14, po): 0; Tumor volume (mm^3) Day 15 Mean ± SE ([4]; qd Day 1-14, po): 429.2 ± 60.2 mm^3; Number of deaths [5]: 0; T/C ratio (%) ([5]; Day 13): 46%; Tumor volume (mm^3) Day 13 Mean ± SE ([5]; qd, po): 1067.9 ± 139.4 mm^3
Cc1nc(NC(=O)N2CCC[C@H]2C(N)=O)sc1-c1ccnc(C(C)(C)C(F)(F)F)c1 [Alpelisib]				179	6410	918	6340	1090	> 10000	> 10000	2700	≥ 179	apoptosis induction (cleaved PARP signal) ([15]; MCF7 NF1 knockdown cells versus control cells): attenuated; apoptosis induction (cleaved PARP signal) ([15]; MCF7 control cells (non-targeting siRNA), single agent): induced apoptosis
CC(=O)Nc1cccc(-n2c(=O)n(C3CC3)c(=O)c3c(Nc4ccc(I)cc4F)n(C)c(=O)c(C)c32)c1 [Trametinib]	9	0.739	> 10000	> 2000	> 2000	> 2000	16	40	> 10000	176	40	≥ 16	IC50 [16]: 0.693 nmol/L; Number of deaths [17]: 0; T/C ratio (%) ([17]; Day 15): 76%; Tumor volume (mm^3) Day 15 Mean ± SE ([17]; qd Day 1-14, po): 1129.3 ± 73.5 mm^3; Number of deaths [18]: 0; T/C ratio (%) ([18]; Day 22): 51%; Tumor volume (mm^3) Day 22 Mean ± SE ([18]; qd Day 1-21, po): 482.5 ± 25.6 mm^3
C[C@]12CC[C@@H]3c4ccc(O)cc4C[C@@H](CCCCCCCCC[S+]([O-])CCCC(F)(F)C(F)(F)F)[C@H]3[C@@H]1CC[C@@H]2O (some centres unmarked) [fulvestrant]													apoptosis induction ([19]; single agent, presence or absence of estrogen, NF1 wildtype and NF1 knockdown cells): little apoptosis inducing activity; ER reduction ([19]; treatment with fulvestrant alone): ER reduction was observed clearly
